Measured values reported in patent US7244763B2, “Compounds that modulate PPAR activity and methods of preparation” (Warner Lambert Company LLC, priority 2003, dated 2007).

Legend:
hPPARβ = biological target: T1, hPPARβ (Homo sapiens, UniProt Q03181); assay: Test A transient transfection assay, HepG2 cells, Gal4-PPAR chimeric receptor luciferase reporter (Hep G2-hBeta); assay type: cell-based; settings: HepG2 cells transfected with hPPARβ chimeric receptor, 24 hours, read-out: EC50β (Hep G2-hBeta EC50)
T1 construct: expression plasmids encoding hPPARα, hPPARβ or mPPARγ chimeric receptors
T1 sequence (Q03181 171-441 limits assumed): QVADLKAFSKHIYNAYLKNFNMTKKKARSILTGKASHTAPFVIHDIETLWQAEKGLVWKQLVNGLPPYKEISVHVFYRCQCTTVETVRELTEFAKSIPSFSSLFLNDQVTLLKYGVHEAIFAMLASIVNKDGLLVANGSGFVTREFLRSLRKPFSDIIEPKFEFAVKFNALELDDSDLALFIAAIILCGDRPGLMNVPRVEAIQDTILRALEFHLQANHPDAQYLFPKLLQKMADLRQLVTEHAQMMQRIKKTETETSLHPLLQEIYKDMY
Procedure: (§1) 1. Test A. Transient Transfections Assay Using the HepG2 Hepatoma Cell Line.
(§2) HepG2 cells were transiently transfected with an expression plasmids encoding hPPARα, hPPARβ or mPPARγ chimeric receptors and a reporter containing the yeast upstream activating sequence (UAS) upstream of the viral E1B promoter controlling a luciferase reporter gene. In addition, the plasmid pRSVβ-gal was used to control for transfection efficiency. HepG2 cells were grown in DMEM supplemented with 10% FBS and 1 μM non-essential amino acid. On the first day, cells were split into 100 mm dishes at 2.5×10^6/dish and incubated overnight at 37C.°/5% CO2. On the second day the cells were transiently transfected with plasmid DNA encoding a chimeric receptor, the luciferase reporter gene; and β-gal. For each 100 mm dish, 15 μg of luciferase reporter (PG5E1b) DNA, 15 μg of Gal4-PPAR chimeric receptor DNA, and 1.5 μg of β-gal plasmid DNA were mixed with 1.4 ml of opti-MEM in the tube. 281 μl of LipoFectamine-2000 reagent was added to 1.4 ml of opti-MEM in the tube, and incubate for 5 min at RT. The diluted Lipofectamine-2000 reagent was combined with the DNA mixture, and incubate for 20 min at RT. After fresh medium was added to each 100 mm dish of cells, 2.8 ml of Lipofectamine2000-DNA mixture was added dropwise to the 100 mm dish containing 14 ml of medium, and incubate 37° C. overnight. […]

human PPARβ LBD = biological target: T2, human PPARβ LBD (Homo sapiens, UniProt Q03181); assay: Test B radioligand competition binding assay (SPA), PPARβ LBD-GST fusion protein; settings: concentration that inhibits 50% of interaction between PPARβ LBD and tritiated ligand
T2 construct: made in house; host or cells: E. coli BL21(DE3)pLysS
T2 sequence (Q03181 211-439 limits assumed): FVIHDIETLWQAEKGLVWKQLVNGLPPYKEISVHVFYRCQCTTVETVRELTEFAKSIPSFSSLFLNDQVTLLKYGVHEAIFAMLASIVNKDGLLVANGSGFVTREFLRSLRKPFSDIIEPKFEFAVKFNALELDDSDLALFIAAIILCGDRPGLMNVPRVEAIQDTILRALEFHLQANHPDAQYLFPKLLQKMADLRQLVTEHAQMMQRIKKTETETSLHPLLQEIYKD
Excerpt: 2. Test B. Radioligand Binding Assay
The ability of a compound to interact with PPARβ can be determined using a competition-based receptor binding assay that employs a radiolabeled PPARβ ligand together with a fragment of the PPARβ receptor containing the ligand binding domain (LBD) fused to the protein glutathione-S-transferase (GST). • [1] Preparation of PPARβ LBD-GST fusion protein. The ligand binding domain of the human PPARβ LBD-GST fusion protein can be expressed in E. coli and purified as outlined below. DNA encoding the LBD of human PPARβ is amplified via PCR and inserted in-frame into the bacterial expression vector pGEX-2t PPARβ LBD-GST fusion proteins are expressed in BL21(DE3)pLysS cells. After a 1–2 hr incubation with up to 1 mM IPTG, the cells are lysed by freeze-thaw in buffer containing 50 mM Tris (pH=8), 250 mM KCl, 10 mM DTT, 1 mM PMSF, and 1% triton X-100. After room temperature DNAse and RNAse treatment for 15 min and centrifugation for 1 hr at 50,000×g, 1.5 ml of a glutathione-Sepharose 4B slurry in PBS is added to the resulting supernatant and the mixture is incubated at room temperature for 30 min. […] After incubation with shaking at room temperature for 30 minutes, radioactivity bound to the PPARβ LBD-GST fusion protein/anti-GST/SPA antibody-binding bead complex is assessed using a Wallac MicroBeta plate reader. […]

PPARαLBD = biological target: T3, PPARαLBD (Homo sapiens, UniProt Q07869); assay: Test B radioligand competition binding assay, similar procedure with PPARα LBD; settings: competition binding to PPARα LBD
T3 construct: GST (inferred from 'similar procedure')
T3 sequence (Q07869 239-466 limits assumed): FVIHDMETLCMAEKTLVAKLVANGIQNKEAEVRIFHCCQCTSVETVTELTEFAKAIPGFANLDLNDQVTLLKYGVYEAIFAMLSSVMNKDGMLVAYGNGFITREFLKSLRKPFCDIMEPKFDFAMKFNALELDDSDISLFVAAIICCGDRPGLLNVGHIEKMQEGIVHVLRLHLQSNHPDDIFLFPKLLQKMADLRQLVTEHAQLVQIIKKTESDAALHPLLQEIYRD

hPPARα = biological target: T4, hPPARα (Homo sapiens, UniProt Q07869); assay: Test A transient transfection assay, HepG2 cells, Gal4-PPAR chimeric receptor luciferase reporter (Hep G2-hAlpha); assay type: cell-based; settings: HepG2 cells transfected with hPPARα chimeric receptor, 24 hours, read-out: EC50α (Hep G2-hAlpha EC50)
T4 construct: expression plasmids encoding hPPARα, hPPARβ or mPPARγ chimeric receptors
T4 sequence (Q07869 200-468 limits assumed): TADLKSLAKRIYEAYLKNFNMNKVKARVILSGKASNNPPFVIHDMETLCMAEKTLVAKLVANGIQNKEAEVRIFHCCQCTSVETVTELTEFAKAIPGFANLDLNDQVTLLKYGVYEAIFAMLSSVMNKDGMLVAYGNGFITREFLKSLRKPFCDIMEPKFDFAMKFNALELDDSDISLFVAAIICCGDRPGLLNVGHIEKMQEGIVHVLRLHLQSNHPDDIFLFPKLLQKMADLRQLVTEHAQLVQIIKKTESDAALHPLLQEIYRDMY
Procedure: as §1, §2

Question: Which EC50 (hPPARβ) does the source give for `O=C(O)CC1CCc2cc(SCc3ccc(-c4ccc(C(F)(F)F)cn4)cc3)ccc2O1` (centres unmarked) [Compound 10, {6-[4-(5-Trifluoromethyl-pyridin-2-yl)-benzylsulfanyl]-chroman-2-yl}-acetic acid] here?
Answer: Its EC50 is 6660 nM.

Question: Which results are given for `COc1cc(C(C)(C)C(=O)O)ccc1SCc1ccc(-c2ccc(C(F)(F)F)cn2)cc1` [Compound 21, 2-{3-Methoxy-4-[4-(5-trifluoromethyl-pyridin-2-yl)-benzylsulfanyl]-phenyl}-2-methyl-propionic acid]?
Answer: EC50 (hPPARβ): 303 nM; IC50 (human PPARβ LBD): 449 nM

Question: For `O=C(O)COc1ccc(SCc2ccc(OC3CCc4cc(Cl)ccc43)cc2)c2c1CCC2` (centres unmarked) [Compound 23, {7-[4-(5-Chloro-indan-1-yloxy)-benzylsulfanyl]-indan-4-yloxy}-acetic acid], which melting point is on record?
Answer: Its melting point is 169 to 170 °C.

Question: With `O=C(O)Cc1coc2cc(OCc3cc(-c4ccc(Cl)cc4)on3)ccc12` [Compound 24, {6-[5-(4-Chloro-phenyl)-isoxazol-3-ylmethoxy]-benzofuran-3-yl}-acetic acid] as the compound, how does the melting point read?
Answer: Its melting point is 193 to 194 °C.

Question: With `O=C(O)Cc1coc2cc(OCc3ccc(OCc4ccc(C(F)(F)F)cc4)cc3)ccc12` [Compound 25, {6-[4-(4-Trifluoromethyl-benzyloxy)-benzyloxy]-benzofuran-3-yl}-acetic acid] as the compound, how does the melting point read?
Answer: Its melting point is 161 to 163 °C.

Question: Which IC50 (PPARαLBD) does the source give for `Cc1cc(SCCCc2ccc3ccccc3c2)ccc1OCC(=O)O` [Compound 27, [2-Methyl-4-(3-naphthalen-2-yl-propylsulfanyl)-phenoxy]-acetic acid] here?
Answer: The IC50 was 3540 nM.

Question: With `Cc1cc(SCCCCOc2ccc(Cl)cc2Cl)ccc1OCC(=O)O` [Compound 31, {4-[4-(2,4-Dichloro-phenoxy)-butylsulfanyl]-2-methyl-phenoxy}-acetic acid] as the compound, how does the IC50 (human PPARβ LBD) read?
Answer: Its IC50 is 6.8 nM.

Question: Which EC50 (hPPARα) does the source give for `O=C(O)C1(c2ccc(SCc3ccc(-c4ccc(C(F)(F)F)cc4)cc3)cc2)CC1` [Compound 36, 1-[4-(4′-Trifluoromethyl-biphenyl-4-ylmethylsulfanyl)-phenyl]-cyclopropanecarboxylic acid] here?
Answer: Its EC50 is 1960 nM.

Question: For `O=C(O)Cc1csc2c(OCc3cc(-c4ccc(Cl)cc4)on3)cccc12` [Compound 77, {7-[5-(4-Chloro-phenyl)-isoxazol-3-ylmethoxy]-benzo[b]thiophen-3-yl}-acetic acid], which melting point is on record?
Answer: Its melting point is 229 to 230 °C (dec.).

Question: For `Cc1cc2c(CC(=O)O)csc2cc1OCc1ccccc1OCc1ccc(C(F)(F)F)cc1` [Compound 78, {5-Methyl-6-[2-(4-trifluoromethyl-benzyloxy)-benzyloxy]-benzo[b]-thiophen-3-yl}-acetic acid], which melting point is on record?
Answer: The melting point was 157 to 158 °C.
